Source: the supplement of paper PMC10307832

Columns and labels:
Assay in all cases: relative viability (nuclei count vs DMSO), 5 days (fraction); higher = more cells survive
RU-SKI 43 = compound: CC[C@@H](C)CNCC(=O)N1CCC2=C([C@@H]1COC3=CC=CC(=C3)C)C=CS2 [RU-SKI 43]
How it was run: (§1)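 Lung cancer cell lines in 1536-well plates were exposed by pinning to five library-drug doses (not always all listed) √10 apart, following an overnight hold at 37 °C. MetaXpress counted Hoechst-stained nuclei from 4× images taken after 5 days without medium change. Viability is the median ratio of treated-well to vehicle-well nuclei across plates. Plates required control CV below 25% and at least one doubling.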

Irinotecan = compound: CCc1c2c(nc3ccc(OC(=O)N4CCC(N5CCCCC5)CC4)cc13)-c1cc3c(c(=O)n1C2)COC(=O)[C@]3(O)CC [Irinotecan]
How it was run: as §1

MK-8033 = compound: Cn1cc(-c2cnc3ccc4ccc(CS(=O)(=O)NCc5ccccn5)cc4c(=O)c3c2)cn1 [MK-8033]
How it was run: as §1

Row | Cell Line | relative viability (RU-SKI 43; 0.1 µM) | relative viability (RU-SKI 43; 0.3162 µM) | relative viability (RU-SKI 43; 1 µM) | relative viability (RU-SKI 43; 3.162 µM) | relative viability (RU-SKI 43; 10 µM) | relative viability (Irinotecan; 0.6325 µM) | relative viability (Irinotecan; 2 µM) | relative viability (Irinotecan; 6.325 µM) | relative viability (Irinotecan; 20 µM) | relative viability (MK-8033; 0.02 µM) | relative viability (MK-8033; 0.06325 µM) | relative viability (MK-8033; 0.2 µM) | relative viability (MK-8033; 0.6325 µM) | relative viability (MK-8033; 2 µM)
1 | LCLC-103H | 1.05 | 1.07 | 1.18 | 1.06 | 1.03 | 0.945 | 0.929 | 0.451 | 0.423 | 0.99 | 1 | 0.896 | 0.997 | 1.06
2 | LK-2 | 1.09 | 1.13 | 1.31 | 1.22 | 1.06 | 1.04 | 0.956 | 0.486 | 0.282 | 0.992 | 0.885 | 0.92 | 1.01 | 1.09
3 | LOU-NH91 | 0.971 | 0.918 | 1.03 | 0.939 | 0.932 | 0.898 | 0.971 | 0.456 | 0.385 | 0.979 | 0.712 | 0.941 | 0.937 | 0.975
4 | LU99A | 0.93 | 1.08 | 0.95 | 0.966 | 0.851 | 0.38 | 0.355 | 0.215 | 0.212 | 1.05 | 0.897 | 0.817 | 0.947 | 0.926
5 | LXF-289 | 1.05 | 1.08 | 1.02 | 1.1 | 0.999 | 0.892 | 0.965 | 0.659 | 0.265 | 1.02 | 0.983 | 0.955 | 1.16 | 0.995
6 | NCI-H23 | 1.03 | 1.18 | 1.1 | 1.1 | 0.926 | 0.693 | 0.73 | 0.332 | 0.234 | 0.977 | 0.897 | 0.893 | 1.06 | 0.86
7 | NCI-H322M | 0.985 | 0.945 | 1.05 | 0.939 | 0.978 | 0.8 | 0.754 | 0.503 | 0.385 | 0.952 | 0.766 | 0.878 | 0.957 | 0.929
8 | NCI-H358 | 0.94 | 1.19 | 0.922 | 0.97 | 0.898 | 0.744 | 0.66 | 0.323 | 0.169 | 0.961 | 0.751 | 0.917 | 0.958 | 0.806
9 | NCI-H441 | 1.12 | 1.16 | 1.08 | 1.14 | 0.956 | 0.567 | 0.614 | 0.303 | 0.266 | 1.01 | 0.903 | 1.04 | 1.02 | 1.08
10 | NCI-H460 | 1.04 | 1.06 | 1.03 | 1.01 | 0.967 | 0.74 | 0.556 | 0.142 | 0.0536 | 0.992 | 0.945 | 0.96 | 1.06 | 1.03
11 | NCI-H520 | 1.07 | 1.08 | 1.09 | 1.06 | 0.938 | 0.898 | 0.726 | 0.365 | 0.325 | 1.06 | 0.98 | 1.01 | 1.03 | 0.928
12 | NCI-H522 | 1.02 | 1.05 | 1.16 | 0.982 | 1.17 | 0.694 | 0.844 | 0.52 | 0.639 | 0.983 | 0.793 | 0.954 | 1.05 | 0.959
13 | NCI-H596 | 0.945 | 0.965 | 1.01 | 0.963 | 0.983 | 0.889 | 1.07 | 0.914 | 0.643 | 0.918 | 0.838 | 0.971 | 0.983 | 1.04
14 | NCI-H647 | 1.04 | 0.987 | 1.13 | 1.07 | 0.996 | 0.866 | 0.815 | 0.191 | 0.142 | 0.919 | 0.943 | 0.89 | 0.935 | 0.874
15 | NCI-H650 | 0.968 | 0.9 | 1.13 | 0.758 | 1.05 | 0.648 | 0.794 | 0.259 | 0.241 | 0.985 | 0.977 | 1.06 | 0.954 | 0.906
16 | NCI-H661 | 0.92 | 1.05 | 1.06 | 0.99 | 0.943 | 1.05 | 0.838 | 0.52 | 0.454 | 0.994 | 0.849 | 1.01 | 1.01 | 0.993
17 | NCI-H727 | 0.838 | 0.989 | 1.08 | 1.1 | 0.811 | 0.516 | 0.565 | 0.531 | 0.54 | 0.877 | 0.691 | 0.911 | 1.13 | 0.97
18 | NCI-H838 | 0.97 | 0.965 | 1.05 | 1 | 0.981 | 1.05 | 1.02 | 0.526 | 0.316 | 0.954 | 0.923 | 0.919 | 0.952 | 0.953
19 | NCI-H1299 | 1.02 | 1.09 | 1.05 | 1.04 | 0.946 | 0.799 | 0.738 | 0.489 | 0.283 | 1.01 | 1.02 | 0.994 | 0.985 | 1
20 | NCI-H1355 | 1.02 | 1.12 | 1.08 | 1.04 | 0.921 |  | 0.948 | 0.426 | 0.3 | 1.02 | 0.894 | 0.914 | 1.01 | 0.992
21 | NCI-H1395 | 0.978 | 0.928 | 1.05 | 0.899 | 0.885 |  | 0.9 | 0.504 | 0.411 | 0.941 | 0.77 | 0.812 | 0.906 | 0.867
22 | NCI-H1437 | 1.07 | 1.04 | 1.14 | 1.04 | 0.986 | 0.824 | 0.719 | 0.426 | 0.289 | 0.964 | 0.972 | 0.919 | 1.01 | 0.93
23 | NCI-H1563 | 0.965 | 0.928 | 0.966 | 1.06 | 0.852 | 1.02 | 1.01 | 0.974 | 0.601 | 0.975 | 0.918 | 0.927 | 0.988 | 0.98
24 | NCI-H1623 | 1.02 | 0.958 | 1.03 | 1.06 | 0.883 | 0.866 | 0.703 | 0.275 | 0.297 | 0.87 | 0.96 | 0.839 | 0.992 | 1.02
